{"source": "paper PMC5218480", "about": "(PLoS ONE, 2017)", "system": "MV-4-11 cells", "experiment": "Gene expression microarray analysis (Affymetrix PrimeView) and GSEA", "type": "cell-based, human", "design": "RFU PODN (11730768_x_at) / Fold change /veh PODN (11730768_x_at) / RFU LINC00158 (11744669_a_at) / Fold change /veh LINC00158 (11744669_a_at) / RFU DUSP10 (11751237_a_at) / Fold change /veh DUSP10 (11751237_a_at) / RFU ID3 (11757404_x_at) / Fold change /veh ID3 (11757404_x_at) / RFU PLEKHG5 (11737974_s_at) / Fold change /veh PLEKHG5 (11737974_s_at) / RFU LRRC4B (11730491_at) / Fold change /veh LRRC4B (11730491_at) / RFU GIMAP4 (11747438_a_at) / Fold change /veh GIMAP4 (11747438_a_at) / RFU KRT8 (11758183_x_at) / Fold change /veh KRT8 (11758183_x_at) / RFU CNN1 (11734310_a_at) / Fold change /veh CNN1 (11734310_a_at) / RFU VPS37D (11726825_at) / Fold change /veh VPS37D (11726825_at) / RFU C10orf10 (11716522_x_at) / Fold change /veh C10orf10 (11716522_x_at) / RFU KIR2DL2 /// KIR2DL4 /// KIR2DL5A /// KIR2DL5B /// KIR2DS1 /// KIR2DS2 /// KIR2DS3 /// KIR2DS4 /// KIR3DL3 /// KIR3DL3 /// KIR3DS1 (11738374_at) / Fold change /veh KIR2DL2 /// KIR2DL4 /// KIR2DL5A /// KIR2DL5B /// KIR2DS1 /// KIR2DS2 /// KIR2DS3 /// KIR2DS4 /// KIR3DL3 /// KIR3DL3 /// KIR3DS1 (11738374_at) / RFU C1QL1 (11718748_at) / Fold change /veh C1QL1 (11718748_at) / RFU TMPRSS4 (11747572_a_at) / Fold change /veh TMPRSS4 (11747572_a_at) / RFU HAMP (11756126_x_at) / Fold change /veh HAMP (11756126_x_at) / RFU RNFT2 (11725882_a_at) / Fold change /veh RNFT2 (11725882_a_at) / RFU NR4A2 (11747474_a_at) / Fold change /veh NR4A2 (11747474_a_at) / RFU ABCC12 (11746883_a_at) / Fold change /veh ABCC12 (11746883_a_at) / RFU TMEM136 (11760407_x_at) / Fold change /veh TMEM136 (11760407_x_at) / RFU CLDN22 /// WWC2 (11732394_at) / Fold change /veh CLDN22 /// WWC2 (11732394_at) / RFU HLA-DPB1 (11760878_x_at) / Fold change /veh HLA-DPB1 (11760878_x_at) / RFU SPINT1 (11716480_a_at) / Fold change /veh SPINT1 (11716480_a_at) / RFU GAP43 (11754022_s_at) / Fold change /veh GAP43 (11754022_s_at) / RFU A4GNT (11735810_at) / Fold change /veh A4GNT (11735810_at) / RFU PRB3 (11715151_x_at) / Fold change /veh PRB3 (11715151_x_at) / RFU TUBB4B (11761932_at) / Fold change /veh TUBB4B (11761932_at) / RFU CAPN14 (11732068_a_at) / Fold change /veh CAPN14 (11732068_a_at) / RFU TMCC2 (11721928_a_at) / Fold change /veh TMCC2 (11721928_a_at) / RFU IRGQ (11745062_a_at) / Fold change /veh IRGQ (11745062_a_at) / RFU FAM174B (11720279_a_at) / Fold change /veh FAM174B (11720279_a_at) / RFU TMPRSS4 (11748680_a_at) / Fold change /veh TMPRSS4 (11748680_a_at) / RFU FAM212B (11763350_a_at) / Fold change /veh FAM212B (11763350_a_at) / RFU PLEKHG5 (11743358_a_at) / Fold change /veh PLEKHG5 (11743358_a_at) / RFU ZSCAN30 (11745921_a_at) / Fold change /veh ZSCAN30 (11745921_a_at) / RFU CMKLR1 (11741424_a_at) / Fold change /veh CMKLR1 (11741424_a_at) / RFU LOC101060620 /// MAPK8IP1 (11723275_at) / Fold change /veh LOC101060620 /// MAPK8IP1 (11723275_at) / RFU SPTSSB (11747773_x_at) / Fold change /veh SPTSSB (11747773_x_at) / RFU PRSS12 (11739890_at) / Fold change /veh PRSS12 (11739890_at) / RFU BIN1 (11741810_x_at) / Fold change /veh BIN1 (11741810_x_at) / RFU WNT11 (11732464_a_at) / Fold change /veh WNT11 (11732464_a_at) / RFU C10orf10 (11716521_a_at) / Fold change /veh C10orf10 (11716521_a_at) / RFU C5orf56 (11738089_at) / Fold change /veh C5orf56 (11738089_at) / RFU CYB561 (11721691_x_at) / Fold change /veh CYB561 (11721691_x_at) / RFU ANKRD19P (11752326_a_at) / Fold change /veh ANKRD19P (11752326_a_at) / RFU OR2T12 /// OR2T33 /// OR2T8 (11738714_s_at) / Fold change /veh OR2T12 /// OR2T33 /// OR2T8 (11738714_s_at) / RFU VCAN (11748164_a_at) / Fold change /veh VCAN (11748164_a_at) / RFU JSRP1 (11732532_at) / Fold change /veh JSRP1 (11732532_at) / RFU KRTAP10-11 (11738290_x_at) / Fold change /veh KRTAP10-11 (11738290_x_at) / RFU MYO3A (11730013_a_at) / Fold change /veh MYO3A (11730013_a_at) / RFU EBF3 (11725865_a_at) / Fold change /veh EBF3 (11725865_a_at) / RFU CAMK2N1 (11719241_x_at) / Fold change /veh CAMK2N1 (11719241_x_at) / RFU C5orf56 (11738088_a_at) / Fold change /veh C5orf56 (11738088_a_at) / RFU OLFML3 (11715873_a_at) / Fold change /veh OLFML3 (11715873_a_at) / RFU LOC100653217 /// NTM (11731650_a_at) / Fold change /veh LOC100653217 /// NTM (11731650_a_at) / RFU MAPK11 (11762145_a_at) / Fold change /veh MAPK11 (11762145_a_at) / RFU FIZ1 (11724087_x_at) / Fold change /veh FIZ1 (11724087_x_at) / RFU OASL (11726364_x_at) / Fold change /veh OASL (11726364_x_at) / RFU SOX15 (11748057_x_at) / Fold change /veh SOX15 (11748057_x_at) / RFU CD79A (11719716_a_at) / Fold change /veh CD79A (11719716_a_at) / RFU HIST1H1D (11736915_at) / Fold change /veh HIST1H1D (11736915_at) / RFU CASKIN2 (11723855_a_at) / Fold change /veh CASKIN2 (11723855_a_at) / RFU LOC730098 (11760151_x_at) / Fold change /veh LOC730098 (11760151_x_at) / RFU OR4N2 (11742367_at) / Fold change /veh OR4N2 (11742367_at) / RFU PRRT2 (11749266_a_at) / Fold change /veh PRRT2 (11749266_a_at) / RFU SNX32 (11753110_a_at) / Fold change /veh SNX32 (11753110_a_at) / RFU CDHR5 (11726645_a_at) / Fold change /veh CDHR5 (11726645_a_at) / RFU RCAN1 (11760418_a_at) / Fold change /veh RCAN1 (11760418_a_at) / RFU FAM167A (11723789_a_at) / Fold change /veh FAM167A (11723789_a_at) / RFU FAM26E (11764081_at) / Fold change /veh FAM26E (11764081_at) / RFU ISYNA1 (11749810_s_at) / Fold change /veh ISYNA1 (11749810_s_at) / RFU ACY1 (11761880_at) / Fold change /veh ACY1 (11761880_at) / RFU 11764098_at / Fold change /veh 11764098_at / RFU SAMD14 (11745864_x_at) / Fold change /veh SAMD14 (11745864_x_at) / RFU NPB (11741838_a_at) / Fold change /veh NPB (11741838_a_at) / RFU TMPRSS6 (11731388_a_at) / Fold change /veh TMPRSS6 (11731388_a_at) / RFU KRTAP10-2 (11738614_at) / Fold change /veh KRTAP10-2 (11738614_at) / RFU ARHGAP8 /// PRR5-ARHGAP8 (11727945_x_at) / Fold change /veh ARHGAP8 /// PRR5-ARHGAP8 (11727945_x_at) / RFU KRTAP5-7 /// NADSYN1 (11734609_at) / Fold change /veh KRTAP5-7 /// NADSYN1 (11734609_at) / RFU RASL12 (11751679_a_at) / Fold change /veh RASL12 (11751679_a_at) / RFU CDKN2B (11736163_a_at) / Fold change /veh CDKN2B (11736163_a_at) / RFU PRF1 (11729649_at) / Fold change /veh PRF1 (11729649_at) / RFU, ZNF638 /// ZNF638-IT1 / Fold change vs veh, ZNF638 /// ZNF638-IT1 / RFU, PANK3 / Fold change vs veh, PANK3 / RFU, SH3YL1 / Fold change vs veh, SH3YL1 / RFU, ZEB2 / Fold change vs veh, ZEB2 / RFU, NRIP1 / Fold change vs veh, NRIP1 / RFU, PTTG1IP / Fold change vs veh, PTTG1IP / RFU, CAPN2 / Fold change vs veh, CAPN2 / RFU, MED14 / Fold change vs veh, MED14 / RFU, SNORA58 / Fold change vs veh, SNORA58 / RFU, C1orf63 / Fold change vs veh, C1orf63 / RFU, LRRFIP1 / Fold change vs veh, LRRFIP1 / RFU, NDUFAF7 / Fold change vs veh, NDUFAF7 / RFU, SLC12A2 / Fold change vs veh, SLC12A2 / RFU, IBTK / Fold change vs veh, IBTK / RFU, ESF1 / Fold change vs veh, ESF1 / Fold change vs veh, TMEM50B / RFU, TAOK1 / Fold change vs veh, TAOK1 / RFU, ACBD3 / Fold change vs veh, ACBD3 / RFU, TMA16 / Fold change vs veh, TMA16 / RFU, RWDD3 / Fold change vs veh, RWDD3 / RFU, BCAT1 / Fold change vs veh, BCAT1 / RFU, EDEM3 / Fold change vs veh, EDEM3 / RFU, TMEM33 / Fold change vs veh, TMEM33 / RFU, WDR75 / Fold change vs veh, WDR75 / RFU, AHCTF1 / Fold change vs veh, AHCTF1 / RFU, TFRC / Fold change vs veh, TFRC / RFU, ZDHHC17 / Fold change vs veh, ZDHHC17 / RFU, NOM1 / Fold change vs veh, NOM1 / RFU, ARL8B / Fold change vs veh, ARL8B / RFU, ZBTB11 / Fold change vs veh, ZBTB11 / RFU, TAMM41 / Fold change vs veh, TAMM41 / RFU, KIAA1704 /// LOC100996395 / Fold change vs veh, KIAA1704 /// LOC100996395 / RFU, ING1 / Fold change vs veh, ING1 / RFU, TRMT61B / Fold change vs veh, TRMT61B / RFU, FUBP3 / Fold change vs veh, FUBP3 / RFU, TP53 / Fold change vs veh, TP53 / RFU, TNKS2 / Fold change vs veh, TNKS2 / RFU, ZFP14 / Fold change vs veh, ZFP14 / RFU, ACTR2 / Fold change vs veh, ACTR2 / RFU, PPP3R1 / Fold change vs veh, PPP3R1 / RFU, PIK3R1 / Fold change vs veh, PIK3R1 / RFU, HNRNPA1 / Fold change vs veh, HNRNPA1 / RFU, RNF170 / Fold change vs veh, RNF170 / RFU, ZNF28 / Fold change vs veh, ZNF28 / RFU, RNGTT / Fold change vs veh, RNGTT / RFU, OGT / Fold change vs veh, OGT / RFU, BRD1 / Fold change vs veh, BRD1 / RFU, MARS / Fold change vs veh, MARS / RFU, ZNF655 / Fold change vs veh, ZNF655 / RFU, FAHD1 / Fold change vs veh, FAHD1 / RFU, BDP1 / Fold change vs veh, BDP1 / RFU, LRRCC1 / Fold change vs veh, LRRCC1 / RFU, ARID1A / Fold change vs veh, ARID1A / RFU, ZNF146 / Fold change vs veh, ZNF146 / RFU, ZNF330 / Fold change vs veh, ZNF330 / RFU, GPN3 / Fold change vs veh, GPN3 / RFU, C9orf123 / Fold change vs veh, C9orf123 / RFU, N4BP2L2 / Fold change vs veh, N4BP2L2 / RFU, ARFIP1 / Fold change vs veh, ARFIP1 / RFU, FAM179B / Fold change vs veh, FAM179B / RFU, BCL10 / Fold change vs veh, BCL10 / RFU, UHRF1BP1L / Fold change vs veh, UHRF1BP1L / RFU, BET1 / Fold change vs veh, BET1 / RFU, CNOT2 / Fold change vs veh, CNOT2 / RFU, ZNF268 / Fold change vs veh, ZNF268 / Fold change vs veh, ZNF507 / RFU, DGCR2 / Fold change vs veh, DGCR2 / RFU, WDSUB1 / Fold change vs veh, WDSUB1 / Fold change vs veh, HSP90B1 /// MIR3652 / RFU, ADSS / Fold change vs veh, ADSS / RFU, GK / Fold change vs veh, GK / RFU, ZNF148 / Fold change vs veh, ZNF148 / RFU, TAF9 / Fold change vs veh, TAF9 / RFU, SLC1A5 / Fold change vs veh, SLC1A5 / RFU, SLMO2 / Fold change vs veh, SLMO2 / RFU, ABCC4 / Fold change vs veh, ABCC4 / RFU, LOC101060439 /// RAP1B / Fold change vs veh, LOC101060439 /// RAP1B / RFU, RFX7 / Fold change vs veh, RFX7 / RFU, GTPBP10 / Fold change vs veh, GTPBP10 / RFU, CNEP1R1 / Fold change vs veh, CNEP1R1 / RFU, BIVM-ERCC5 /// ERCC5 / Fold change vs veh, BIVM-ERCC5 /// ERCC5 / RFU, ILF3 / Fold change vs veh, ILF3 / RFU 11762660_at / Fold change /veh 11762660_at / RFU VCAN (11757783_s_at) / Fold change /veh VCAN (11757783_s_at) / RFU DDX43 (11728927_at) / Fold change /veh DDX43 (11728927_at) / RFU KRT8 (11758188_x_at) / Fold change /veh KRT8 (11758188_x_at) / RFU NKD1 (11759106_at) / Fold change /veh NKD1 (11759106_at) / RFU SRD5A1 (11742802_a_at) / Fold change /veh SRD5A1 (11742802_a_at) / RFU TPSAB1 /// TPSB2 (11721975_s_at) / Fold change /veh TPSAB1 /// TPSB2 (11721975_s_at) / RFU GSTM3 (11746129_a_at) / Fold change /veh GSTM3 (11746129_a_at) / RFU IL23R (11737362_x_at) / Fold change /veh IL23R (11737362_x_at) / RFU TMEM51 (11727254_a_at) / Fold change /veh TMEM51 (11727254_a_at) / RFU PIWIL2 (11732686_x_at) / Fold change /veh PIWIL2 (11732686_x_at) / RFU ORM1 (11744905_x_at) / Fold change /veh ORM1 (11744905_x_at) / RFU CCDC152 (11743942_at) / Fold change /veh CCDC152 (11743942_at) / RFU ECM1 (11717891_a_at) / Fold change /veh ECM1 (11717891_a_at) / RFU IL23R (11748794_a_at) / Fold change /veh IL23R (11748794_a_at) / RFU TNFAIP8L3 (11732012_x_at) / Fold change /veh TNFAIP8L3 (11732012_x_at) / RFU MBOAT4 (11741988_at) / Fold change /veh MBOAT4 (11741988_at) / RFU 11764193_at / Fold change /veh 11764193_at / RFU TMEM53 (11763286_at) / Fold change /veh TMEM53 (11763286_at) / RFU MAGEB2 (11727129_at) / Fold change /veh MAGEB2 (11727129_at) / RFU TMEM200A (11744735_a_at) / Fold change /veh TMEM200A (11744735_a_at) / RFU CCDC152 (11751479_a_at) / Fold change /veh CCDC152 (11751479_a_at) / RFU FAM211A (11726209_a_at) / Fold change /veh FAM211A (11726209_a_at) / RFU RGS16 (11746705_a_at) / Fold change /veh RGS16 (11746705_a_at) / RFU VCAN (11755009_s_at) / Fold change /veh VCAN (11755009_s_at) / RFU RHOB (11743442_s_at) / Fold change /veh RHOB (11743442_s_at) / RFU RGS16 (11720943_a_at) / Fold change /veh RGS16 (11720943_a_at) / RFU RGS16 (11720944_at) / Fold change /veh RGS16 (11720944_at) / RFU, VPS4B / Fold change vs veh, VPS4B / RFU, CREB1 / Fold change vs veh, CREB1 / RFU, DNAJC13 / Fold change vs veh, DNAJC13 / RFU, GNAQ / Fold change vs veh, GNAQ / RFU, CDK5R1 / Fold change vs veh, CDK5R1 / RFU, ZRANB3 / Fold change vs veh, ZRANB3 / RFU, CUL4A / Fold change vs veh, CUL4A / RFU, CCNY / Fold change vs veh, CCNY / RFU, UFL1 / Fold change vs veh, UFL1 / RFU, COG3 / Fold change vs veh, COG3 / RFU, DIAPH2 / Fold change vs veh, DIAPH2 / RFU, SKA2 / Fold change vs veh, SKA2 / RFU, AFF3 / Fold change vs veh, AFF3 / RFU, LMF1 / Fold change vs veh, LMF1 / RFU, IPO11 / Fold change vs veh, IPO11 / RFU, DFFB / Fold change vs veh, DFFB / RFU, FOXP1 / Fold change vs veh, FOXP1 / RFU, CARD8 / Fold change vs veh, CARD8 / RFU, STRN3 / Fold change vs veh, STRN3 / RFU, ADK / Fold change vs veh, ADK / RFU, RASSF2 / Fold change vs veh, RASSF2 / RFU, WIPF1 / Fold change vs veh, WIPF1 / RFU, LARP1B / Fold change vs veh, LARP1B / RFU, RASA1 / Fold change vs veh, RASA1 / RFU, RB1 / Fold change vs veh, RB1 / RFU, PPFIA1 / Fold change vs veh, PPFIA1 / RFU, MAT2A / Fold change vs veh, MAT2A / RFU, CCT5 / Fold change vs veh, CCT5 / RFU, WDR92 / Fold change vs veh, WDR92 / RFU, CUX1 / Fold change vs veh, CUX1 / RFU, TTC7A / Fold change vs veh, TTC7A / RFU, TMEM135 / Fold change vs veh, TMEM135 / RFU, DEPTOR / Fold change vs veh, DEPTOR / RFU, CPM / Fold change vs veh, CPM / RFU, DNAJB6 / Fold change vs veh, DNAJB6 / RFU, CACNA2D3 / Fold change vs veh, CACNA2D3 / RFU, DTX4 / Fold change vs veh, DTX4 / RFU, TFCP2 / Fold change vs veh, TFCP2 / RFU, GMCL1 /// GMCL1P1 / Fold change vs veh, GMCL1 /// GMCL1P1 / RFU, AEBP2 / Fold change vs veh, AEBP2 / RFU, SNHG1 /// SNORD22 /// SNORD25 /// SNORD26 /// SNORD27 /// SNORD28 /// SNORD29 /// SNORD31 / Fold change vs veh, SNHG1 /// SNORD22 /// SNORD25 /// SNORD26 /// SNORD27 /// SNORD28 /// SNORD29 /// SNORD31 / Fold change (Aza/veh), C12orf56 (ProbeSet 11735607_a_at) / Fold change (ACY-1035/veh), C12orf56 (ProbeSet 11735607_a_at) / Fold change (Aza/veh), FGFR1OP (ProbeSet 11751329_s_at) / Fold change (ACY-1035/veh), FGFR1OP (ProbeSet 11751329_s_at) / Fold change (Aza/veh), VPS36 (ProbeSet 11739960_a_at) / Fold change (ACY-1035/veh), VPS36 (ProbeSet 11739960_a_at) / RFU SYPL1 (11715823_x_at) / Fold change /veh SYPL1 (11715823_x_at) / RFU IGFBP7 (11715501_s_at) / Fold change /veh IGFBP7 (11715501_s_at) / RFU REEP3 (11722064_at) / Fold change /veh REEP3 (11722064_at) / RFU IGLL1 (11728026_x_at) / Fold change /veh IGLL1 (11728026_x_at): dose or concentration left out as unconfirmed", "settings": "ProbeSet 11719185_x_at; LIST B", "data": [{"smiles": "Nc1ncn([C@@H]2O[C@H](CO)[C@@H](O)[C@H]2O)c(=O)n1", "note": "[azacitidine]", "values": [{"measurement": "RFU, N4BP2L2", "result": 91.08, "unit": "RFU"}]}]}
